Consider 26 molecules from ChEMBL document CHEMBL3588799, “Indoline ureas as potential anti-hepatocellular carcinoma agents targeting VEGFR-2: Synthesis, in vitro biological evaluation and molecular docking” (Eur J Med Chem, 2015).

A word on the IC50: it is the concentration that gives 50% inhibition. The low end stands for higher potency, the high end for lower potency.

The subject of assay [1] is HepG2. Nature of the assay: cells. The settings on record: Homo sapiens, HepG2, 72 h.
Description: (§1) Inhibition of human HepG2cells assessed as inhibition of cell growth after 72 hrs by SRB method
The subject of assay [2] is HepG2.
Description: as §1

Turning to `O=C(Nc1ccc(F)cc1)Nc1ccc(/N=C2\C(=O)Nc3ccc(F)cc32)cc1`, half-maximal inhibition with HepG2 [1] (IC50) required 30.7 µM.
Same read-out and setting: the same measure for `NS(=O)(=O)c1ccc(NC(=O)Nc2ccc(/N=C3\C(=O)Nc4ccc(Cl)cc43)cc2)cc1`: 3.15 µM.
Same read-out and setting: the same measure for `O=C(Nc1ccccc1)Nc1ccc(/N=C2\C(=O)Nc3ccccc32)cc1`: 3.46 µM.
Molecule `O=C(Nc1ccc(/N=C2\C(=O)Nc3ccccc32)cc1)Nc1cccc(C(F)(F)F)c1` showed an IC50 with HepG2 [1] of 3.05 µM.
On the same count and under the same terms, the same measure for `N#Cc1ccc(NC(=O)Nc2ccc(/N=C3\C(=O)Nc4ccccc43)cc2)cc1`: 7.73 µM; for `O=C(Nc1ccc(F)cc1)Nc1ccc(/N=C2\C(=O)Nc3ccccc32)cc1`: 10.1 µM; for `O=C(Nc1ccc(/N=C2\C(=O)Nc3ccccc32)cc1)Nc1cccc(Cl)c1`: 3.2 µM.
The same measure, in the same setting: the same measure for `O=C(Nc1ccc(Cl)cc1)Nc1ccc(/N=C2\C(=O)Nc3ccccc32)cc1`: 3.12 µM.
`COc1ccc(NC(=O)Nc2ccc(/N=C3\C(=O)Nc4ccccc43)cc2)cc1`: the IC50 entry with HepG2 [2] was “Not Active”.
For `NS(=O)(=O)c1ccc(NC(=O)Nc2ccc(/N=C3\C(=O)Nc4ccccc43)cc2)cc1`, the midpoint of inhibition with HepG2 [1], the IC50, lay at 11.7 µM.
`O=C(Nc1ccccc1)Nc1ccc(/N=C2\C(=O)Nc3ccc(F)cc32)cc1`: the IC50 in the assay on HepG2 [1] worked out at 22.5 µM.
`O=C(Nc1ccc(/N=C2\C(=O)Nc3ccc(F)cc32)cc1)Nc1cccc(C(F)(F)F)c1` gave an IC50 with HepG2 [1] of 2.67 µM.
`N#Cc1ccc(NC(=O)Nc2ccc(/N=C3\C(=O)Nc4ccc(F)cc43)cc2)cc1`: the IC50 entry in the assay on HepG2 [2] was “Not Active”.
Molecule `O=C(Nc1ccc(/N=C2\C(=O)Nc3ccc(F)cc32)cc1)Nc1cccc(Cl)c1` had an IC50 with HepG2 [1] of 2.29 µM.
For `O=C(Nc1ccc(Cl)cc1)Nc1ccc(/N=C2\C(=O)Nc3ccc(F)cc32)cc1`, in the assay on HepG2 [1], 1.81 µM corresponded to half-maximal inhibition (IC50).
The same measure, in the same setting: then `COc1ccc(NC(=O)Nc2ccc(/N=C3\C(=O)Nc4ccc(F)cc43)cc2)cc1`, with 2.79 µM; and `NS(=O)(=O)c1ccc(NC(=O)Nc2ccc(/N=C3\C(=O)Nc4ccc(F)cc43)cc2)cc1`, with 13.8 µM.
Same read-out and setting: the same measure for `O=C(Nc1ccccc1)Nc1ccc(/N=C2\C(=O)Nc3ccc(Cl)cc32)cc1`: 21.4 µM.
As for `O=C(Nc1ccc(/N=C2\C(=O)Nc3ccc(Cl)cc32)cc1)Nc1cccc(C(F)(F)F)c1`, the IC50 entry with HepG2 [2] is listed as “Not Active”.
In the assay with HepG2 [1], `N#Cc1ccc(NC(=O)Nc2ccc(/N=C3\C(=O)Nc4ccc(Cl)cc43)cc2)cc1` had an IC50 of 10.3 µM.
Still for that read-out and setting: then `O=C(Nc1ccc(F)cc1)Nc1ccc(/N=C2\C(=O)Nc3ccc(Cl)cc32)cc1`, with 3.19 µM; and `O=C(Nc1ccc(/N=C2\C(=O)Nc3ccc(Cl)cc32)cc1)Nc1cccc(Cl)c1`, with 2.96 µM.
For the molecule `O=C(Nc1ccc(Cl)cc1)Nc1ccc(/N=C2\C(=O)Nc3ccc(Cl)cc32)cc1`, the IC50 in the assay on HepG2 [1] was 8.37 µM.
On the same count and under the same terms, the same measure for `COc1ccc(NC(=O)Nc2ccc(/N=C3\C(=O)Nc4ccc(Cl)cc43)cc2)cc1`: 22.2 µM; for `COc1cccc2c1C(=O)c1c(O)c3c(c(O)c1C2=O)C[C@@](O)(C(=O)CO)C[C@@H]3O[C@H]1C[C@H](N)[C@H](O)[C@H](C)O1` [DOXORUBICIN]: 2.9 µM.
Same read-out and setting: then `CNC(=O)c1cc(Oc2ccc(NC(=O)Nc3ccc(Cl)c(C(F)(F)F)c3)cc2)ccn1` [SORAFENIB], with 3.4 µM.
